Results as given in ChEMBL document CHEMBL1137069, “Design, synthesis and anti-microbial activity of 1H-pyrazole carboxylates” (2004).
“And” between values parts separate entries of the source, which are not always exact repeats. Identical values can stand only once.

Experiments:
Format in all cases: functional
[1] = Antifungal activity against Bipolaris oryzae was measured as mycelial growth at 0.1 mg/mL concentration
Fusarium oxysporum [2] = assay: Antifungal activity against Fusarium oxysporum was determined at 0.5 mg/mL concentration
Thanatephorus cucumeris [3] = assay: Antifungal activity against Rhizoctonia solani was measured as mycelial growth at 0.5 mg/mL concentration
Curvularia lunata [4] = assay: Antifungal activity against Curvularia lunata was measured as mycelial growth at 0.1 mg/mL concentration
Curvularia lunata [5] = assay: Antifungal activity against Curvularia lunata was measured as mycelial growth at 0.5 mg/mL concentration
Enterococcus faecalis [6] = assay: Antibacterial activity against […] was measured as area of inhibition zone at 0.1 mg/mL concentration
Escherichia coli [7] = assay: Antibacterial activity against Escherichia coli was determined at 0.5 mg/mL concentration
Alternaria alternata [8] = assay: Antifungal activity against Alternaria alternata was determined at 0.5 mg/mL concentration
Thanatephorus cucumeris [9] = assay: Antifungal activity against Rhizoctonia solani was determined at 0.5 mg/mL concentration
Staphylococcus aureus [10] = assay: Antibacterial activity against Staphylococcus aureus was determined at 0.1 mg/mL concentration
Alternaria alternata [11] = assay: Antifungal activity against Alternaria alternata was measured as mycelial growth at 0.1 mg/mL concentration
[12] = Antifungal activity against Bipolaris oryzae was determined at 0.1 mg/mL concentration
Curvularia lunata [13] = assay: Antifungal activity against Curvularia lunata was determined at 0.1 mg/mL concentration
Escherichia coli [14] = assay: Antibacterial activity against Escherichia coli was determined at 0.1 mg/mL concentration
Staphylococcus aureus [15] = assay: Antibacterial activity against Staphylococcus aureus was determined at 0.5 mg/mL concentration
Fusarium oxysporum [16] = assay: Antifungal activity against Fusarium oxysporum was determined at 0.1 mg/mL concentration
Fusarium oxysporum [17] = assay: Antifungal activity against Fusarium oxysporum was measured as mycelial growth at 0.5 mg/mL concentration
Enterococcus faecalis [18] = assay: Antibacterial activity against […] was determined at 0.5 mg/mL concentration
Pseudomonas aeruginosa [19] = assay: Antibacterial activity against Pseudomonas aeruginosa was measured as area of inhibition zone at 0.1 mg/mL concentration; details: for zone of inhibition at 100 µg/mL: Pseudomonas aeruginosa
Pseudomonas aeruginosa [20] = assay: Antibacterial activity against Pseudomonas aeruginosa was determined at 0.1 mg/mL concentration
Thanatephorus cucumeris [21] = assay: Antifungal activity against Rhizoctonia solani was measured as mycelial growth at 0.1 mg/mL concentration
Thanatephorus cucumeris [22] = assay: Antifungal activity against Rhizoctonia solani was determined at 0.1 mg/mL concentration
[23] = Antifungal activity against Bipolaris oryzae was measured as mycelial growth at 0.5 mg/mL concentration
Curvularia lunata [24] = assay: Antifungal activity against Curvularia lunata was determined at 0.5 mg/mL concentration
Pseudomonas aeruginosa [25] = assay: Antibacterial activity against Pseudomonas aeruginosa was determined at 0.5 mg/mL concentration
Alternaria alternata [26] = assay: Antifungal activity against Alternaria alternata was measured as mycelial growth at 0.5 mg/mL concentration
[27] = Antifungal activity against Bipolaris oryzae was determined at 0.5 mg/mL concentration
[28] = Antibacterial activity against Escherichia coli was measured as area of inhibition zone at 0.1 mg/mL concentration; details: for zone of inhibition at 100 µg/mL: Escherichia coli
Enterococcus faecalis [29] = assay: Antibacterial activity against […] was determined at 0.1 mg/mL concentration
Alternaria alternata [30] = assay: Antifungal activity against Alternaria alternata was determined at 0.1 mg/mL concentration
Fusarium oxysporum [31] = assay: Antifungal activity against Fusarium oxysporum was measured as mycelial growth at 0.1 mg/mL concentration
Staphylococcus aureus [32] = assay: Antibacterial activity against Staphylococcus aureus was measured as area of inhibition zone at 0.1 mg/mL concentration; details: for zone of inhibition at 100 µg/mL: Staphylococcus aureus

| Compound | Mycelial growth [1] | inhibition at 500 µg/mL (Fusarium oxysporum [2]) | Mycelial growth (Thanatephorus cucumeris [3]) | Mycelial growth (Curvularia lunata [4]) | Mycelial growth (Curvularia lunata [5]) | zone of inhibition at 100 µg/mL (Enterococcus faecalis [6]) | inhibition at 500 µg/mL (Escherichia coli [7]) | inhibition at 500 µg/mL (Alternaria alternata [8]) | inhibition at 500 µg/mL (Thanatephorus cucumeris [9]) | inhibition at 100 µg/mL (Staphylococcus aureus [10]) | Mycelial growth (Alternaria alternata [11]) | inhibition at 100 µg/mL [12] | inhibition at 100 µg/mL (Curvularia lunata [13]) | inhibition at 100 µg/mL (Escherichia coli [14]) | inhibition at 500 µg/mL (Staphylococcus aureus [15]) | inhibition at 100 µg/mL (Fusarium oxysporum [16]) | Mycelial growth (Fusarium oxysporum [17]) | inhibition at 500 µg/mL (Enterococcus faecalis [18]) | inhibition at 100 µg/mL (Pseudomonas aeruginosa [20]) | Mycelial growth (Thanatephorus cucumeris [21]) | also measured |
| --- | --- | --- | --- | --- | --- | --- | --- | --- | --- | --- | --- | --- | --- | --- | --- | --- | --- | --- | --- | --- | --- |
| CCOC(=O)c1cn(-c2ccc([N+](=O)[O-])cc2[N+](=O)[O-])nc1C | 6 cm | 40% | 8 cm | 6.5 cm | 5.3 cm | 76 mm | 86.7% | 46.7% | 11.1% | 58.9% | 5.5 cm | 33.3% | 27.8% | 51.1% | 91.1% | 30% | 5.4 cm | 84.4% | 0% | 9 cm | zone of inhibition at 100 µg/mL (Pseudomonas aeruginosa [19]): 0 mm; inhibition at 100 µg/mL (Thanatephorus cucumeris [22]): 0%; Mycelial growth [23]: 4.5 cm; inhibition at 500 µg/mL (Curvularia lunata [24]): 41.1%; inhibition at 500 µg/mL (Pseudomonas aeruginosa [25]): 0%; Mycelial growth (Alternaria alternata [26]): 4.8 cm; inhibition at 500 µg/mL [27]: 5%; Inhibition Zone [28]: 7.8 cm and 4.6 cm; zone of inhibition at 100 µg/mL [28]: 50 mm; inhibition at 100 µg/mL (Enterococcus faecalis [29]): 55.6%; inhibition at 100 µg/mL (Alternaria alternata [30]): 38.9%; Mycelial growth (Fusarium oxysporum [31]): 6.3 cm; Inhibition Zone (Staphylococcus aureus [32]): 5.3 cm; zone of inhibition at 100 µg/mL (Staphylococcus aureus [32]): 82 mm |
| Cc1nn(-c2ccc([N+](=O)[O-])cc2[N+](=O)[O-])cc1C(=O)OCc1ccccc1 | 6 cm | 52.2% | 6.5 cm | 6.4 cm | 5.3 cm | 73 mm | 54.4% | 53.3% | 27.8% | 45.6% | 5.2 cm | 33.3% | 28.9% | 17.8% | 78.9% | 30% | 4.3 cm | 81.1% | 18.9% | 7.9 cm | Inhibition Zone (Pseudomonas aeruginosa [19]): 2 cm; zone of inhibition at 100 µg/mL (Pseudomonas aeruginosa [19]): 17 mm; inhibition at 100 µg/mL (Thanatephorus cucumeris [22]): 12.2%; Mycelial growth [23]: 4.8 cm; inhibition at 500 µg/mL (Curvularia lunata [24]): 41.1%; inhibition at 500 µg/mL (Pseudomonas aeruginosa [25]): 22.2%; Mycelial growth (Alternaria alternata [26]): 4.2 cm; inhibition at 500 µg/mL [27]: 46.7%; inhibition at 100 µg/mL (Enterococcus faecalis [29]): 56.7%; inhibition at 100 µg/mL (Alternaria alternata [30]): 42.2%; Mycelial growth (Fusarium oxysporum [31]): 6.3 cm; Inhibition Zone (Staphylococcus aureus [32]): 4.1 cm; zone of inhibition at 100 µg/mL (Staphylococcus aureus [32]): 71 mm |
| CCOC(=O)c1cn(-c2ccc([N+](=O)[O-])cc2[N+](=O)[O-])nc1-c1ccccc1F | 5.7 cm | 41.1% | 8.2 cm | 5 cm | 4 cm | 23 mm | 56.7% | 62.2% | 8.9% | 46.7% | 4.2 cm | 36.7% | 44.4% | 20% | 81.1% | 33.3% | 5.3 cm | 25.6% | 0% | 9 cm | zone of inhibition at 100 µg/mL (Pseudomonas aeruginosa [19]): 0 mm; inhibition at 100 µg/mL (Thanatephorus cucumeris [22]): 0%; Mycelial growth [23]: 4.3 cm; inhibition at 500 µg/mL (Curvularia lunata [24]): 55.6%; inhibition at 500 µg/mL (Pseudomonas aeruginosa [25]): 0%; Mycelial growth (Alternaria alternata [26]): 3.4 cm; inhibition at 500 µg/mL [27]: 52.2%; inhibition at 100 µg/mL (Enterococcus faecalis [29]): 0%; inhibition at 100 µg/mL (Alternaria alternata [30]): 53.3%; Mycelial growth (Fusarium oxysporum [31]): 6 cm; Inhibition Zone (Staphylococcus aureus [32]): 7.3 cm; zone of inhibition at 100 µg/mL (Staphylococcus aureus [32]): 42 mm |
| CCOC(=O)c1nn(-c2ccc([N+](=O)[O-])cc2[N+](=O)[O-])cc1C=O | 3.5 cm | 71.1% | 4.2 cm | 5.6 cm | 3.5 cm | 86 mm | 97.8% | 76.6% | 53.3% | 85.6% | 3.8 cm | 61.1% | 37.8% | 81.1% | 97.8% | 52.2% | 2.6 cm | 95.6% | 0% | 6.8 cm | inhibition at 100 µg/mL (Thanatephorus cucumeris [22]): 24.4%; Mycelial growth [23]: 2.3 cm; inhibition at 500 µg/mL (Curvularia lunata [24]): 61.1%; inhibition at 500 µg/mL (Pseudomonas aeruginosa [25]): 25.6%; Mycelial growth (Alternaria alternata [26]): 2.1 cm; inhibition at 500 µg/mL [27]: 74.4%; Inhibition Zone [28]: 7.5 cm and 8.8 cm; zone of inhibition at 100 µg/mL [28]: 73 mm; inhibition at 100 µg/mL (Enterococcus faecalis [29]): 83.3%; inhibition at 100 µg/mL (Alternaria alternata [30]): 57.8%; Mycelial growth (Fusarium oxysporum [31]): 4.3 cm; Inhibition Zone (Staphylococcus aureus [32]): 7.7 cm; zone of inhibition at 100 µg/mL (Staphylococcus aureus [32]): 88 mm |
| CCOC(=O)c1cn(-c2ccc([N+](=O)[O-])cc2[N+](=O)[O-])nc1CCl | 5.9 cm | 48.9% | 8.5 cm | 6 cm | 5.1 cm | 0 mm | 51.1% | 46.7% | 5.6% | 76.6% | 6 cm | 34.4% | 33.3% | 17.8% | 92.2% | 24.4% | 4.6 cm | 0% | 0% | 9 cm | zone of inhibition at 100 µg/mL (Pseudomonas aeruginosa [19]): 0 mm; inhibition at 100 µg/mL (Thanatephorus cucumeris [22]): 0%; Mycelial growth [23]: 4.6 cm; inhibition at 500 µg/mL (Curvularia lunata [24]): 43.3%; inhibition at 500 µg/mL (Pseudomonas aeruginosa [25]): 0%; Mycelial growth (Alternaria alternata [26]): 4.8 cm; inhibition at 500 µg/mL [27]: 48.9%; inhibition at 100 µg/mL (Enterococcus faecalis [29]): 0%; inhibition at 100 µg/mL (Alternaria alternata [30]): 33.3%; Mycelial growth (Fusarium oxysporum [31]): 6.8 cm; Inhibition Zone (Staphylococcus aureus [32]): 8.3 cm; zone of inhibition at 100 µg/mL (Staphylococcus aureus [32]): 69 mm |
| Cc1nn(-c2ccc([N+](=O)[O-])cc2[N+](=O)[O-])cc1C(=O)OC(C)(C)C | 5.5 cm | 36.7% | 8.5 cm | 6.7 cm | 5.4 cm | 48 mm | 52.2% | 43.3% | 5.6% | 81.1% | 6.2 cm | 38.9% | 25.6% | 16.7% | 93.3% | 13.3% | 5.7 cm | 53.3% | 0% | 9 cm | zone of inhibition at 100 µg/mL (Pseudomonas aeruginosa [19]): 0 mm; inhibition at 100 µg/mL (Thanatephorus cucumeris [22]): 0%; Mycelial growth [23]: 4.3 cm; inhibition at 500 µg/mL (Curvularia lunata [24]): 40%; inhibition at 500 µg/mL (Pseudomonas aeruginosa [25]): 0%; Mycelial growth (Alternaria alternata [26]): 5.1 cm; inhibition at 500 µg/mL [27]: 52.2%; inhibition at 100 µg/mL (Enterococcus faecalis [29]): 21.1%; inhibition at 100 µg/mL (Alternaria alternata [30]): 31.1%; Mycelial growth (Fusarium oxysporum [31]): 7.8 cm; Inhibition Zone (Staphylococcus aureus [32]): 7.3 cm; zone of inhibition at 100 µg/mL (Staphylococcus aureus [32]): 84 mm |
| CCOC(=O)c1cn(-c2ccc([N+](=O)[O-])cc2[N+](=O)[O-])nc1-c1ccc(Cl)cc1 | 6.6 cm | 55.6% | 7.2 cm | 5.8 cm | 4.8 cm | 49 mm | 52.2% | 53.3% | 20% | 17.8% | 5.4 cm | 26.7% | 35.6% | 0% | 36.7% | 30% | 4 cm | 54.4% | 0% | 9 cm | zone of inhibition at 100 µg/mL (Pseudomonas aeruginosa [19]): 0 mm; inhibition at 100 µg/mL (Thanatephorus cucumeris [22]): 0%; Mycelial growth [23]: 3.9 cm; inhibition at 500 µg/mL (Curvularia lunata [24]): 46.7%; inhibition at 500 µg/mL (Pseudomonas aeruginosa [25]): 0%; Mycelial growth (Alternaria alternata [26]): 4.2 cm; inhibition at 500 µg/mL [27]: 56.7%; inhibition at 100 µg/mL (Enterococcus faecalis [29]): 0%; inhibition at 100 µg/mL (Alternaria alternata [30]): 40%; Mycelial growth (Fusarium oxysporum [31]): 6.3 cm; Inhibition Zone (Staphylococcus aureus [32]): 3.3 cm and 1.6 cm |
